For data set [1] the following is noted: after oral administration; cited from earlier work.
In the next data set the test system is M. smithii. Kind of data set: Lovastatin gavage in M. smithii colonized high-fat diet rats, qPCR of bowel segments. The format is in vivo, Sprague-Dawley rats. Particulars: 1.5 mg/rat gavaged daily for 10 days. As to the method: The rats were assessed for increased M. smithii by qPCR before and after the diet, and then divided into 3 groups. Group 1 was given lovastatin in its lactone form, Group 2 was given lovastatin hydroxy acid (each 1.5 mg/rat), and Group 3 was gavaged with a placebo. Each group was gavaged daily for 10 days. Three day stool collections were performed to assess average stool wet weight and daily variability prior to commencing the high fat diet, after 7 weeks of high-fat diet, and the final days of the lovastatin gavage (still on high-fat diet). On day 10 of the gavage, rats were euthanized and DNA was extracted from contents of ligated bowel segments (duodenum, jejunum, ileum, cecum and left colon). qPCR was performed using primers for total luminal bacteria and M. smithii.
(In qPCR the cycle at which signal appears reflects the starting amount.)

Data set [2] is described as follows: Binary stress testing of 1:1 lovastatin/excipient mixtures, HPLC. Particulars: range of temperature and humidity conditions, 7 days.
Procedure: The compatibility of lovastatin drug substance with formulation excipients was evaluated in binary stress testing studies where 1:1 mixtures of lovastatin and each excipient were stored for 7 days under different conditions of temperature and relative humidity (RH). Samples were analyzed by HPLC (based on USP methods) at day 0 and day 7.
The conditions of data set [3]: pylorus-ligated rats, within 30 min; cited from earlier work.
The subject of data set [4] is human and rat fecal bacterial enzyme fractions. The settings on record: over a 12 h period; cited from earlier work.

For `CC[C@H](C)C(=O)O[C@H]1C[C@@H](C)C=C2C=C[C@H](C)[C@H](CC[C@@H]3C[C@@H](O)CC(=O)O3)[C@H]21` [Lovastatin], the “pre-portal hydrolysis in vivo” value in data set [1] is recorded as roughly 10%. For the same compound, the “M. smithii levels in the colon” value in the data set on M. smithii is given as “unaffected”. Further, in the data set with M. smithii (versus placebo), the “ratio of M. smithii to total bacteria in the ileum” value is “reduced”. Further, the “stability in binary stress testing” value in data set [2] is reported as “stable”. In addition, in data set [3], the “fraction of an intragastric dose that exited the gastric juice” value was roughly 30%. Further, the “loss of lovastatin lactone” value in data set [4] is 8-19%.

For the compound `CC[C@H](C)C(=O)O[C@H]1C[C@@H](C)C=C2C=C[C@H](C)[C@H](CC[C@@H](O)C[C@@H](O)CC(=O)O)[C@H]21` [lovastatin β-hydroxyacid], in the data set with M. smithii, the “M. smithii levels in the colon” value was “unaffected”. For the same compound, the “fraction of an intragastric dose that exited the gastric juice” value in data set [3] was roughly 30%.

The values are drawn from patent US10668159B2, “Anti-methanogenic compositions and uses thereof” (Cedars-Sinai Medical Center, priority 2014, dated 2020).
